# Reference: PMC12475274, “Harnessing indole scaffolds to identify small-molecule IRE1α inhibitors modulating XBP1 mRNA splicing” (Nature Communications, 2025)
# Tests used:
# Test in all cases: Kinase profiling (SelectScreen), ZLYTE
# Type in all cases: biochemical
# ACVR1B (ALK4) = ACVR1B (ALK4) (Homo sapiens, UniProt P36896)
# Protocol: (§1) Kinase profiling was conducted by the SelectScreen Kinase Profiling Services (Thermo Fisher), using Z′-LYTE, Adapta, or LanthaScreen Eu Kinase Binding Assay for different kinases. The kinome phylogenetic tree was generated using the KinMap web portal.
# AKT1 (PKB alpha) = AKT1 (PKB alpha) (Homo sapiens, UniProt P31749)
# Protocol: as §1
# AMPK A1/B1/G1 = AMPK A1/B1/G1 (Homo sapiens, UniProt Q13131)
# AMPK A1/B1/G1, sequence (Q13131 whole entry): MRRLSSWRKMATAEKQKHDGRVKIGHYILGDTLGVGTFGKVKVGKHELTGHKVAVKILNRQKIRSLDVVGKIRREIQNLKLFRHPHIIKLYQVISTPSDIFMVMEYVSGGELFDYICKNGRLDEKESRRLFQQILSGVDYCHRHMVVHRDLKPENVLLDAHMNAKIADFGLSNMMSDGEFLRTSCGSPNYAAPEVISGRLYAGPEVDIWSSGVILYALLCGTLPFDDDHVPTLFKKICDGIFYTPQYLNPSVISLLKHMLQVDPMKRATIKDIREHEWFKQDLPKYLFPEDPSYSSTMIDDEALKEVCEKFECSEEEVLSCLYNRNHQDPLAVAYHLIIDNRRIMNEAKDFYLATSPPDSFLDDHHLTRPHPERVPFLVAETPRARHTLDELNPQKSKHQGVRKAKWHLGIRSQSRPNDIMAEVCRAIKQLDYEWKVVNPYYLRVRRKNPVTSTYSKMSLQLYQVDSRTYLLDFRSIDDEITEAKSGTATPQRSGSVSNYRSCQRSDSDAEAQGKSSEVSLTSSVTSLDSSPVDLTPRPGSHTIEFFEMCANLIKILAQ
# AMPK A1/B1/G1, sequence (Q9Y478 whole entry partner): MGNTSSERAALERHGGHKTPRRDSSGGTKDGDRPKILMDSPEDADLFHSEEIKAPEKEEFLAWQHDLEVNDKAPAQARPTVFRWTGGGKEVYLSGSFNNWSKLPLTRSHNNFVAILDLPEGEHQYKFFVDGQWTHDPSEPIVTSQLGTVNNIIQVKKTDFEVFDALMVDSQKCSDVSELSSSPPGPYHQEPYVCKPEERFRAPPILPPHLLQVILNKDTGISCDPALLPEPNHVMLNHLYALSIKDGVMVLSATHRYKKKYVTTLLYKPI
# AMPK A1/B1/G1, sequence (P54619 whole entry partner): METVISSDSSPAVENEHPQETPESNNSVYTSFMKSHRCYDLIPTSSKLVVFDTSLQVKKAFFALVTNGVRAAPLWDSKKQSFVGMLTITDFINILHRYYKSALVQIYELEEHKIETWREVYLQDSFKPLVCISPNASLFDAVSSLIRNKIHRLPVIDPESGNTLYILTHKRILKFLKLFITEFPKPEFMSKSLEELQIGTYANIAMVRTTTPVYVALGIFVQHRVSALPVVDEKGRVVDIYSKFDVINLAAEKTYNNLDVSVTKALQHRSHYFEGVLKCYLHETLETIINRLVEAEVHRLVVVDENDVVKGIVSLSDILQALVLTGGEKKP
# Protocol: as §1
# AURKA (Aurora A) = AURKA (Aurora A) (Homo sapiens, UniProt O14965)
# Protocol: as §1
# BTK = BTK (Homo sapiens, UniProt Q06187)
# Protocol: as §1
# CHEK1 (CHK1) = CHEK1 (CHK1) (Homo sapiens, UniProt O14757)
# Protocol: as §1
# CLK2 = CLK2 (Homo sapiens, UniProt P49760)
# CLK2, sequence (P49760 whole entry): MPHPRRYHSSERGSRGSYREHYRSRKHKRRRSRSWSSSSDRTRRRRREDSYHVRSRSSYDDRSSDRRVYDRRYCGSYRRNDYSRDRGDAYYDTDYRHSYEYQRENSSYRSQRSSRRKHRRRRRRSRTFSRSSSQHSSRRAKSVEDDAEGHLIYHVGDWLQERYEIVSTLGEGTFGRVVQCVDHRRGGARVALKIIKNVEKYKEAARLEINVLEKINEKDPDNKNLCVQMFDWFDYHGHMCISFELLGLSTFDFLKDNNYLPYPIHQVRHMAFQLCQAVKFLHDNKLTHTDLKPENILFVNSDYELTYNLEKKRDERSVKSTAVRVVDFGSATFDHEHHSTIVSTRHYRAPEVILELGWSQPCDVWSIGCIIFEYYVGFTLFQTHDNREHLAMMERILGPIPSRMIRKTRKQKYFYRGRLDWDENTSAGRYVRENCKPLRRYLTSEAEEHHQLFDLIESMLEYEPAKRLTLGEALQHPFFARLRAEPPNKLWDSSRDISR
# Protocol: as §1
# CSNK1G2 (CK1 gamma 2) = CSNK1G2 (CK1 gamma 2) (Homo sapiens, UniProt P78368)
# Protocol: as §1
# CSNK2A1 (CK2 alpha 1) = CSNK2A1 (CK2 alpha 1) (Homo sapiens, UniProt P68400)
# Protocol: as §1
# DAPK3 (ZIPK) = DAPK3 (ZIPK) (Homo sapiens, UniProt O43293)
# Protocol: as §1
# DYRK1A = DYRK1A (Homo sapiens, UniProt Q13627)
# Protocol: as §1
# DYRK3 = DYRK3 (Homo sapiens, UniProt O43781)
# Protocol: as §1
# EEF2K = EEF2K (Homo sapiens, UniProt O00418)
# EEF2K, sequence (O00418 whole entry): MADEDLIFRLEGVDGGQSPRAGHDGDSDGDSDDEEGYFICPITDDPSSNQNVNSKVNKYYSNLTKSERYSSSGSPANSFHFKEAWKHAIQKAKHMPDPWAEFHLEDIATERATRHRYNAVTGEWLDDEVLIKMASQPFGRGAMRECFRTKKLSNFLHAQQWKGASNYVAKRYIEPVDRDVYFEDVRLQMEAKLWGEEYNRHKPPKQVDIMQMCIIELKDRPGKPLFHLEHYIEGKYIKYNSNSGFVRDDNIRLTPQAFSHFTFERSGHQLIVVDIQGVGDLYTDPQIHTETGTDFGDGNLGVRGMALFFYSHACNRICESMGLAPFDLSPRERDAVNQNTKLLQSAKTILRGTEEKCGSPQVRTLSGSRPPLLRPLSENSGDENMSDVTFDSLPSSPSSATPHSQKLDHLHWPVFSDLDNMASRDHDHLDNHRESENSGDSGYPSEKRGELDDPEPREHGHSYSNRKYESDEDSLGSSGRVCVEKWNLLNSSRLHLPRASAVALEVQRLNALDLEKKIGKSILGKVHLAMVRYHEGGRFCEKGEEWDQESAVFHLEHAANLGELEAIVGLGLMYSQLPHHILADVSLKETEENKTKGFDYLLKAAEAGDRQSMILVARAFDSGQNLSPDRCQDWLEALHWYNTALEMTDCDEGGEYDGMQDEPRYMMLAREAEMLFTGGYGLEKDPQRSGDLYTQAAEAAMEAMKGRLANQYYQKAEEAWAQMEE
# Protocol: as §1
# EPHA2 = EPHA2 (Homo sapiens, UniProt P29317)
# Protocol: as §1
# EPHB4 = EPHB4 (Homo sapiens, UniProt P54760)
# Protocol: as §1
# FLT3 = FLT3 (Homo sapiens, UniProt P36888)
# Protocol: as §1
# FRAP1 (mTOR) = FRAP1 (mTOR) (Homo sapiens, UniProt P42345)
# Protocol: as §1
# IKBKB (IKK beta) = IKBKB (IKK beta) (Homo sapiens, UniProt O14920)
# Protocol: as §1
# INSR = INSR (Homo sapiens, UniProt P06213)
# Protocol: as §1
# JAK3 = JAK3 (Homo sapiens, UniProt P52333)
# Protocol: as §1
# KDR (VEGFR2) = KDR (VEGFR2) (Homo sapiens, UniProt P35968)
# Protocol: as §1
# MAP2K1 (MEK1) = MAP2K1 (MEK1) (Homo sapiens, UniProt Q02750); conditions: IA107 at 5 μM; ATP 100 μM
# Protocol: as §1
# MAP2K6 (MKK6) = MAP2K6 (MKK6) (Homo sapiens, UniProt P52564); conditions: IA107 at 5 μM; ATP 100 μM
# Protocol: as §1
# MAPK1 (ERK2) = MAPK1 (ERK2) (Homo sapiens, UniProt P28482)
# Protocol: as §1
# MAPKAPK2 = MAPKAPK2 (Homo sapiens, UniProt P49137)
# Protocol: as §1
# MARK2 = MARK2 (Homo sapiens, UniProt Q7KZI7)
# Protocol: as §1
# MET (cMet) = MET (cMet) (Homo sapiens, UniProt P08581)
# MET (cMet), sequence (P08581 25-1390): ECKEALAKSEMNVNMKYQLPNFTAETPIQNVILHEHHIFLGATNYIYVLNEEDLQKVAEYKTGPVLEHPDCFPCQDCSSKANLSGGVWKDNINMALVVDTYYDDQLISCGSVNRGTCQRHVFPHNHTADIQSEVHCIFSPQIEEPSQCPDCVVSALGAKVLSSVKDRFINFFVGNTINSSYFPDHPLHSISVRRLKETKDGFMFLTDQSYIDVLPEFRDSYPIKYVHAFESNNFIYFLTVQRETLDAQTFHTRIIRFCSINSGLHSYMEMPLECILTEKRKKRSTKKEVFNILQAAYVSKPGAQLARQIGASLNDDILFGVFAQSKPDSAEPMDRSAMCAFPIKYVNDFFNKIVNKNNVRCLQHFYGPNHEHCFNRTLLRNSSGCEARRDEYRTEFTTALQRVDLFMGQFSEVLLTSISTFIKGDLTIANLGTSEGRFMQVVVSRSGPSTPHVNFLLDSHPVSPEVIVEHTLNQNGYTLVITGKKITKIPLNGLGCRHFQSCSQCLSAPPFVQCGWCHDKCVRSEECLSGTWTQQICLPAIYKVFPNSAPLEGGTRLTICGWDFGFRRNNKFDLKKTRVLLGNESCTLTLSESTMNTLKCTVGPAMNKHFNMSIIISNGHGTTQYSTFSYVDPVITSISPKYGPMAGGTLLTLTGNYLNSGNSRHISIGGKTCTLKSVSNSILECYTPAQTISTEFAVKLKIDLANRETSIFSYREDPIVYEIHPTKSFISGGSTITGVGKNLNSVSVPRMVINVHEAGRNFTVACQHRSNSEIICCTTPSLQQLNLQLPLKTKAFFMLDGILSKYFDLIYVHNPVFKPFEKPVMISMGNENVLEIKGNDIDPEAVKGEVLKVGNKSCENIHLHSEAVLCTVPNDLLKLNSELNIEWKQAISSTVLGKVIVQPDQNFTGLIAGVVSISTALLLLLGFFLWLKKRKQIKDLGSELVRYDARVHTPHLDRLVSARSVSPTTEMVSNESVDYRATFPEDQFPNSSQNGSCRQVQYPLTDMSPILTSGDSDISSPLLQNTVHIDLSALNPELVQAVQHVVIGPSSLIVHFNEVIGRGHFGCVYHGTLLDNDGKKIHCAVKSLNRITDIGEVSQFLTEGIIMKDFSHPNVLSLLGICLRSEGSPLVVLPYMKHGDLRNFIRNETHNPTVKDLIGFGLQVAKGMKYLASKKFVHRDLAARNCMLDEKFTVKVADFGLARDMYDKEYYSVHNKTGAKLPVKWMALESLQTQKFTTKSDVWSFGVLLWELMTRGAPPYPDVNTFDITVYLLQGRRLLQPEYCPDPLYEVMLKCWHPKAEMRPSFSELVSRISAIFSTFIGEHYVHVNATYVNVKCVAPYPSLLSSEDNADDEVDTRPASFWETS
# Protocol: as §1
# NTRK2 (TRKB) = NTRK2 (TRKB) (Homo sapiens, UniProt Q16620)
# NTRK2 (TRKB), sequence (Q16620 32-822): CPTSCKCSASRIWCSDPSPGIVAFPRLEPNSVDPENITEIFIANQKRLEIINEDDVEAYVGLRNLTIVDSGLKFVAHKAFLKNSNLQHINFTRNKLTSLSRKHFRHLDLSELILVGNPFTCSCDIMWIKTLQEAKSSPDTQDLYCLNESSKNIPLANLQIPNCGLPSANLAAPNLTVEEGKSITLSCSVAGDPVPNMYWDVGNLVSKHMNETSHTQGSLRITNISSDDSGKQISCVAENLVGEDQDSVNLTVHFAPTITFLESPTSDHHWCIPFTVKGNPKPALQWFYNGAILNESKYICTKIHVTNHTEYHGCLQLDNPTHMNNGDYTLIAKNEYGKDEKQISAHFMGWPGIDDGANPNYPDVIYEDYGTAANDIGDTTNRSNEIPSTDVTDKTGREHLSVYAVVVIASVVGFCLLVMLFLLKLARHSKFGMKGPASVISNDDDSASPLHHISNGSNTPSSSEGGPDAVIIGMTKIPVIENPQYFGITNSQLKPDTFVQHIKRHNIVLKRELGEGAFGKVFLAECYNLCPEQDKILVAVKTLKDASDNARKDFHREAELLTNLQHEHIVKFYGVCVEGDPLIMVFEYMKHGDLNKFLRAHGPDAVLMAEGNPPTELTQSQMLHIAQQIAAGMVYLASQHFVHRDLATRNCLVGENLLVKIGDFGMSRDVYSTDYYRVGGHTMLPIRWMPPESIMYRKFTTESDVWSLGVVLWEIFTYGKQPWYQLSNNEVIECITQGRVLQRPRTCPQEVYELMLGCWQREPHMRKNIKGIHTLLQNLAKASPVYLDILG
# Protocol: as §1
# PAK4 = PAK4 (Homo sapiens, UniProt O96013)
# Protocol: as §1
# PDGFRB (PDGFR beta) = PDGFRB (PDGFR beta) (Homo sapiens, UniProt P09619)
# Protocol: as §1
# PHKG2 = PHKG2 (Homo sapiens, UniProt P15735)
# Protocol: as §1
# PIM1 = PIM1 (Homo sapiens, UniProt P11309)
# Protocol: as §1
# PRKACA (PKA) = PRKACA (PKA) (Homo sapiens, UniProt P17612)
# Protocol: as §1
# PRKD1 (PKC mu) = PRKD1 (PKC mu) (Homo sapiens, UniProt Q15139)
# Protocol: as §1
# PTK2 (FAK) = PTK2 (FAK) (Homo sapiens, UniProt Q05397)
# Protocol: as §1
# RPS6KA3 (RSK2) = RPS6KA3 (RSK2) (Homo sapiens, UniProt P51812)
# Protocol: as §1
# RPS6KB1 (p70S6K) = RPS6KB1 (p70S6K) (Homo sapiens, UniProt P23443)
# Protocol: as §1
# SGKL (SGK3) = SGKL (SGK3) (Homo sapiens, UniProt Q96BR1)
# Protocol: as §1
# SRC = SRC (Homo sapiens, UniProt P12931)
# Protocol: as §1
# STK4 (MST1) = STK4 (MST1) (Homo sapiens, UniProt Q13043)
# Protocol: as §1
# ACVR1B (ALK4), sequence (P36896 24-505): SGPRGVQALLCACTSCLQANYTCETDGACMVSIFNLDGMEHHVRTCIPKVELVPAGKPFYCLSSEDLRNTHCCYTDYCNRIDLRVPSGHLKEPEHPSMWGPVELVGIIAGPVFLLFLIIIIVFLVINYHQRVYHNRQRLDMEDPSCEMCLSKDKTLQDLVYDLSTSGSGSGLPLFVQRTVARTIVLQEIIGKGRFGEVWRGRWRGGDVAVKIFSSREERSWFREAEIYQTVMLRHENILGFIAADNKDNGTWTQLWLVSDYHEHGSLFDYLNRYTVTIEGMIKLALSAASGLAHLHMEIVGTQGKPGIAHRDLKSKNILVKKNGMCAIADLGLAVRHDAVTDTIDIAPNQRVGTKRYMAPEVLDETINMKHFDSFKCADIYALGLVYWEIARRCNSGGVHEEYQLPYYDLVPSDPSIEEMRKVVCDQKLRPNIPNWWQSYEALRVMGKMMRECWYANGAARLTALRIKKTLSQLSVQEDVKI
structure (smiles),measurement,setting,value
Cc1c(CCC(=O)O)c2cc(Br)ccc2n1C(=O)c1ccccc1 [IA107],inhibition at 5 µM,ACVR1B (ALK4),-5%
same,inhibition at 5 µM,AKT1 (PKB alpha),0%
same,inhibition at 5 µM,AMPK A1/B1/G1,9%
same,inhibition at 5 µM,AURKA (Aurora A),5%
same,inhibition at 5 µM,BTK,8%
same,inhibition at 5 µM,CHEK1 (CHK1),10%
same,inhibition at 5 µM,CLK2,7%
same,inhibition at 5 µM,CSNK1G2 (CK1 gamma 2),6%
same,inhibition at 5 µM,CSNK2A1 (CK2 alpha 1),6%
same,inhibition at 5 µM,DAPK3 (ZIPK),1%
same,inhibition at 5 µM,DYRK1A,4%
same,inhibition at 5 µM,DYRK3,2%
same,inhibition at 5 µM,EEF2K,5%
same,inhibition at 5 µM,EPHA2,4%
same,inhibition at 5 µM,EPHB4,3%
same,inhibition at 5 µM,FLT3,6%
same,inhibition at 5 µM,FRAP1 (mTOR),5%
same,inhibition at 5 µM,IKBKB (IKK beta),4%
same,inhibition at 5 µM,INSR,5%
same,inhibition at 5 µM,JAK3,0%
same,inhibition at 5 µM,KDR (VEGFR2),1%
same,inhibition at 5 µM,MAP2K1 (MEK1),3%
same,inhibition at 5 µM,MAP2K6 (MKK6),2%
same,inhibition at 5 µM,MAPK1 (ERK2),2%
same,inhibition at 5 µM,MAPKAPK2,5%
same,inhibition at 5 µM,MARK2,8%
same,inhibition at 5 µM,MET (cMet),3%
same,inhibition at 5 µM,NTRK2 (TRKB),5%
same,inhibition at 5 µM,PAK4,-3%
same,inhibition at 5 µM,PDGFRB (PDGFR beta),0%
same,inhibition at 5 µM,PHKG2,26%
same,inhibition at 5 µM,PIM1,39%
same,inhibition at 5 µM,PRKACA (PKA),9%
same,inhibition at 5 µM,PRKD1 (PKC mu),0%
same,inhibition at 5 µM,PTK2 (FAK),4%
same,inhibition at 5 µM,RPS6KA3 (RSK2),1%
same,inhibition at 5 µM,RPS6KB1 (p70S6K),3%
same,inhibition at 5 µM,SGKL (SGK3),1%
same,inhibition at 5 µM,SRC,4%
same,inhibition at 5 µM,STK4 (MST1),0%
